Reference: patent US20110020312A1, “METHODS FOR TREATMENT OF METABOLIC DISORDERS USING EPIMETABOLIC SHIFTERS, MULTIDIMENSIONAL INTRACELLULAR MOLECULES, OR ENVIRONMENTAL INFLUENCERS” (priority 2009, published 2011)

Key:
Caspase 3 = assay: Western blot, Caspase 3 levels; assay type: cell-based, human
Description: The blots were stripped by incubating for 30 minutes with methanol, followed by two 10 minute washes with TBS-T, then 30 minutes of incubation with Stripping buffer at 50 deg C., and followed by two washes with 100 ml or more of TBS-T for 30′ each. The 2 blots were scanned in laser scanner to check for complete stripping. The blots were activated with methanol for 5 seconds, washed with water for 5 minutes, and TBST for 15 minutes. The blots were blocked for 1 hour with 5% blocking reagent in TBS-T at room temperature and then washed 3 times with TBS-T (1×-15′; 2×5′ each) and probed with the antibody for Caspase 3 in 5% BSA (Santacruz Biotechnology # sc7272) at 1:200 dilutions) overnight at 4 deg C. with shaking. After the overnight incubation with primary antibody for Caspase 3, the membranes were washed 3 times with TBS-T (1×-15′; 2×5′ each) and probed with the secondary antibody (antimouse; 1:10,000 dilution) for 1 h on the orbital tilting shaker at room temperature. After 1 h of incubation with secondary antibodies, the blots were washed 3 times with TBS-T (1×-15′; 2×5′ each) and then incubated with ECF reagent for 5 minutes and then each blot scanned with 5100 Fuji Laser scanner at 25 uM resolution, 16 bit, green laser, at 400V and at 500 V.
The samples were processed and the gels were run, transferred, stained and scanned essentially as described above.
The levels of Caspase 3 and actin were determined by probing the blots successively with primary antibodies for Caspase 3 and actin, essentially as described above.
The Actin blots were stripped by incubating for 30 minutes with methanol, followed by two 10 minute washes with TBS-T, then 30 minutes of incubation with Stripping buffer at 50 deg C., and followed by two washes with 100 ml or more of TBS-T for 30′ each. The blots were scanned in laser scanner to check for complete stripping. The blots were activated with methanol for 5 seconds, washed with water for 5 minutes, and TBST for 15 minutes. The blots were blocked for 1 hour with 5% blocking reagent in TBS-T at room temperature and then washed 3 times with TBS-T (1×-15′; 2×5′ each) and probed with the primary antibody for Hif 1 alpha, Caspase 3 or PDHB in 5% BSA (at 1:200 by incubation overnight at 4 deg C. with gentle shaking. The primary antibody for Hif 1 alpha (Abcam ab2185; antirabbit) was at 1:500 dilution in 5% BSA. The primary antibody for Caspase 3 (Santacruz sc7272; antirabbit) was at 1:200 dilution in 5% BSA. The primary antibody for Pyruvate Dehydrogenase beta (PDHB) (Novus Biologicals H00005162-M03; antimouse) was at 1:500 dilution in 5% BSA. After incubation with primary antibodies, the membranes were washed 3 times with TBS-T (1×-15′; 2×5′ each) and probed with the secondary antibody (PDHB antimouse; Hif 1a and Caspase 3 antirabbit; 1:10,000 dilution) for 1 h at room temperature. After 1 h of incubation with secondary antibodies, the blots were washed 3 times with TBS-T (1×-15′; 2×5′ each) and then incubated with ECF reagent for 5 minutes and then each blot scanned with 5100 Fuji Laser scanner at 25 uM resolution, 16 bit, green laser, at 400V and at 500 V.
The Actin blots were stripped by incubating for 30 minutes with methanol, followed by two 10 minute washes with TBS-T, then 30 minutes of incubation with Stripping buffer at 50 deg C., and followed by two washes with 100 ml or more of TBS-T for 30′ each. The blots were activated with methanol for 5 seconds, washed with water for 5 minutes, and TBST for 15 minutes. The blots were blocked for 1 hour with 5% blocking reagent in TBS-T at room temperature and then washed 3 times with TBS-T (1×-15′; 2×5′ each) and probed with the primary antibody for Caspase 3 or MMP-6 in 5% BSA by incubation overnight at 4 deg C. with gentle shaking. The primary antibody for Caspase 3 (Abcam ab44976-100; antirabbit) was at 1:500 dilution in 5% BSA. The primary antibody for MMP-6 (Santacruz scMM0029-ZB5; antimouse) was at 1:100 dilution in 5% BSA. […]

[1] = cited from earlier work

**Q.** With `COC1=C(OC)C(=O)C(C/C=C(\C)CC/C=C(\C)CC/C=C(\C)CC/C=C(\C)CC/C=C(\C)CC/C=C(\C)CC/C=C(\C)CC/C=C(\C)CC/C=C(\C)CCC=C(C)C)=C(C)C1=O` [Q10, Coenzyme Q10] as the compound, how does the “Caspase 3 Normalized Volume” value (Caspase 3; HASMC, 5g48-50) read?
**A.** 766

**Q.** And the “Caspase 3 Normalized Volume” value (Caspase 3; HASMC, 5g48-100)?
**A.** 669

**Q.** What about the “Caspase 3 Normalized Volume” value (Caspase 3; HASMC, 22G24-50) of the same compound?
**A.** 835

**Q.** What about the “Caspase 3 Normalized Volume” value (Caspase 3; HASMC, 22G24-100) of the same compound?
**A.** 865

**Q.** And the “Caspase 3 Normalized Volume” value (Caspase 3; HASMC, 22G48-50)?
**A.** 639

**Q.** And the “Caspase 3 Normalized Volume” value (Caspase 3; HASMC, 22G48-100)?
**A.** 624

**Q.** And the Caspase 3 Normalized Volume as a % (Caspase 3; HepG2, 5g24-50, 2 Experiments)?
**A.** 108%

**Q.** And the Caspase 3 Normalized Volume as a % (Caspase 3; HepG2, 5g24-100, 2 Experiments)?
**A.** 176%

**Q.** And the Caspase 3 Normalized Volume as a % (Caspase 3; HepG2, 5g48-50, 2 Experiments)?
**A.** 144%

**Q.** What about the Caspase 3 Normalized Volume as a % (Caspase 3; HepG2, 5g48-100, 2 Experiments) of the same compound?
**A.** 95%

**Q.** What about the Caspase 3 Normalized Volume as a % (Caspase 3; HepG2, 22G24-50, 2 Experiments) of the same compound?
**A.** 139%

**Q.** What about the Caspase 3 Normalized Volume as a % (Caspase 3; HepG2, 22G24-100, 2 Experiments) of the same compound?
**A.** 178%

**Q.** And the Caspase 3 Normalized Volume as a % (Caspase 3; HepG2, 22G48-50, 2 Experiments)?
**A.** 150%

**Q.** What about the Caspase 3 Normalized Volume as a % (Caspase 3; HepG2, 22G48-100, 2 Experiments) of the same compound?
**A.** 145%

**Q.** What about the “Caspase 3 Normalized Volume” value (Caspase 3; PACA2, 5g-50, 24 h) of the same compound?
**A.** 325

**Q.** What about the “Caspase 3 Normalized Volume” value (Caspase 3; PACA2, 5g-50, 48 h) of the same compound?
**A.** 701

**Q.** And the “Caspase 3 Normalized Volume” value (Caspase 3; PACA2, 5g-100, 24 h)?
**A.** 374

**Q.** What about the “Caspase 3 Normalized Volume” value (Caspase 3; PACA2, 5g-100, 48 h) of the same compound?
**A.** 291

**Q.** And the “Caspase 3 Normalized Volume” value (Caspase 3; PACA2, 22G-50, 24 h)?
**A.** 675

**Q.** What about the “Caspase 3 Normalized Volume” value (Caspase 3; PACA2, 22G-50, 48 h) of the same compound?
**A.** 497

**Q.** And the “Caspase 3 Normalized Volume” value (Caspase 3; PACA2, 22G-100, 24 h)?
**A.** 842

**Q.** And the “Caspase 3 Normalized Volume” value (Caspase 3; PACA2, 22G-100, 48 h)?
**A.** 559

**Q.** What about the “levels of caspase 3” value (Caspase 3; cancer cells) of the same compound?
**A.** increased

**Q.** And the “expression of Caspase-3” value (Caspase 3; normal cells)?
**A.** moderately decreased

**Q.** And the solubility in water [1]?
**A.** insoluble in water
